Measured values from ChEMBL document CHEMBL5634156, “A potent and selective cis-amide inhibitor of ryanodine receptor 2 as a candidate for cardiac arrhythmia treatment” (Eur J Med Chem, 2023).
Calls of active or inactive are those of the source. The rule behind the calls is not given here.

Assays:
Format in all cases: cell-based
[1] = tested on: Cardiomyocyte; assay: Inhibition of RyR2 R420W mutant in mouse Cardiomyocyte assessed as 0.5 Hz field-pulse stimulated suppression of abnormal Ca2+ waves at 30 to 100 nM incubated for 15 seconds by ROI analysis; settings: dose 30-100 nM, time 15.0 sec
[2] = tested on: Cardiomyocyte; assay: Inhibition of RyR2 R420W mutant in mouse Cardiomyocyte assessed as 0.5 Hz field-pulse stimulated suppression of abnormal Ca2+ waves incubated for 3 mins by ROI analysis
[3] = target: Ryanodine receptor 2 (Mus musculus, UniProt E9Q401); assay: Inhibition of Full length wild type mouse RyR2 expressed in Flp-In-T-REx-293 cells assessed as increase in Ca2+ release endoplasmic reticulum by flex-station 3 fluorometer analysis
Sequence of Ryanodine receptor 2 (E9Q401 whole entry): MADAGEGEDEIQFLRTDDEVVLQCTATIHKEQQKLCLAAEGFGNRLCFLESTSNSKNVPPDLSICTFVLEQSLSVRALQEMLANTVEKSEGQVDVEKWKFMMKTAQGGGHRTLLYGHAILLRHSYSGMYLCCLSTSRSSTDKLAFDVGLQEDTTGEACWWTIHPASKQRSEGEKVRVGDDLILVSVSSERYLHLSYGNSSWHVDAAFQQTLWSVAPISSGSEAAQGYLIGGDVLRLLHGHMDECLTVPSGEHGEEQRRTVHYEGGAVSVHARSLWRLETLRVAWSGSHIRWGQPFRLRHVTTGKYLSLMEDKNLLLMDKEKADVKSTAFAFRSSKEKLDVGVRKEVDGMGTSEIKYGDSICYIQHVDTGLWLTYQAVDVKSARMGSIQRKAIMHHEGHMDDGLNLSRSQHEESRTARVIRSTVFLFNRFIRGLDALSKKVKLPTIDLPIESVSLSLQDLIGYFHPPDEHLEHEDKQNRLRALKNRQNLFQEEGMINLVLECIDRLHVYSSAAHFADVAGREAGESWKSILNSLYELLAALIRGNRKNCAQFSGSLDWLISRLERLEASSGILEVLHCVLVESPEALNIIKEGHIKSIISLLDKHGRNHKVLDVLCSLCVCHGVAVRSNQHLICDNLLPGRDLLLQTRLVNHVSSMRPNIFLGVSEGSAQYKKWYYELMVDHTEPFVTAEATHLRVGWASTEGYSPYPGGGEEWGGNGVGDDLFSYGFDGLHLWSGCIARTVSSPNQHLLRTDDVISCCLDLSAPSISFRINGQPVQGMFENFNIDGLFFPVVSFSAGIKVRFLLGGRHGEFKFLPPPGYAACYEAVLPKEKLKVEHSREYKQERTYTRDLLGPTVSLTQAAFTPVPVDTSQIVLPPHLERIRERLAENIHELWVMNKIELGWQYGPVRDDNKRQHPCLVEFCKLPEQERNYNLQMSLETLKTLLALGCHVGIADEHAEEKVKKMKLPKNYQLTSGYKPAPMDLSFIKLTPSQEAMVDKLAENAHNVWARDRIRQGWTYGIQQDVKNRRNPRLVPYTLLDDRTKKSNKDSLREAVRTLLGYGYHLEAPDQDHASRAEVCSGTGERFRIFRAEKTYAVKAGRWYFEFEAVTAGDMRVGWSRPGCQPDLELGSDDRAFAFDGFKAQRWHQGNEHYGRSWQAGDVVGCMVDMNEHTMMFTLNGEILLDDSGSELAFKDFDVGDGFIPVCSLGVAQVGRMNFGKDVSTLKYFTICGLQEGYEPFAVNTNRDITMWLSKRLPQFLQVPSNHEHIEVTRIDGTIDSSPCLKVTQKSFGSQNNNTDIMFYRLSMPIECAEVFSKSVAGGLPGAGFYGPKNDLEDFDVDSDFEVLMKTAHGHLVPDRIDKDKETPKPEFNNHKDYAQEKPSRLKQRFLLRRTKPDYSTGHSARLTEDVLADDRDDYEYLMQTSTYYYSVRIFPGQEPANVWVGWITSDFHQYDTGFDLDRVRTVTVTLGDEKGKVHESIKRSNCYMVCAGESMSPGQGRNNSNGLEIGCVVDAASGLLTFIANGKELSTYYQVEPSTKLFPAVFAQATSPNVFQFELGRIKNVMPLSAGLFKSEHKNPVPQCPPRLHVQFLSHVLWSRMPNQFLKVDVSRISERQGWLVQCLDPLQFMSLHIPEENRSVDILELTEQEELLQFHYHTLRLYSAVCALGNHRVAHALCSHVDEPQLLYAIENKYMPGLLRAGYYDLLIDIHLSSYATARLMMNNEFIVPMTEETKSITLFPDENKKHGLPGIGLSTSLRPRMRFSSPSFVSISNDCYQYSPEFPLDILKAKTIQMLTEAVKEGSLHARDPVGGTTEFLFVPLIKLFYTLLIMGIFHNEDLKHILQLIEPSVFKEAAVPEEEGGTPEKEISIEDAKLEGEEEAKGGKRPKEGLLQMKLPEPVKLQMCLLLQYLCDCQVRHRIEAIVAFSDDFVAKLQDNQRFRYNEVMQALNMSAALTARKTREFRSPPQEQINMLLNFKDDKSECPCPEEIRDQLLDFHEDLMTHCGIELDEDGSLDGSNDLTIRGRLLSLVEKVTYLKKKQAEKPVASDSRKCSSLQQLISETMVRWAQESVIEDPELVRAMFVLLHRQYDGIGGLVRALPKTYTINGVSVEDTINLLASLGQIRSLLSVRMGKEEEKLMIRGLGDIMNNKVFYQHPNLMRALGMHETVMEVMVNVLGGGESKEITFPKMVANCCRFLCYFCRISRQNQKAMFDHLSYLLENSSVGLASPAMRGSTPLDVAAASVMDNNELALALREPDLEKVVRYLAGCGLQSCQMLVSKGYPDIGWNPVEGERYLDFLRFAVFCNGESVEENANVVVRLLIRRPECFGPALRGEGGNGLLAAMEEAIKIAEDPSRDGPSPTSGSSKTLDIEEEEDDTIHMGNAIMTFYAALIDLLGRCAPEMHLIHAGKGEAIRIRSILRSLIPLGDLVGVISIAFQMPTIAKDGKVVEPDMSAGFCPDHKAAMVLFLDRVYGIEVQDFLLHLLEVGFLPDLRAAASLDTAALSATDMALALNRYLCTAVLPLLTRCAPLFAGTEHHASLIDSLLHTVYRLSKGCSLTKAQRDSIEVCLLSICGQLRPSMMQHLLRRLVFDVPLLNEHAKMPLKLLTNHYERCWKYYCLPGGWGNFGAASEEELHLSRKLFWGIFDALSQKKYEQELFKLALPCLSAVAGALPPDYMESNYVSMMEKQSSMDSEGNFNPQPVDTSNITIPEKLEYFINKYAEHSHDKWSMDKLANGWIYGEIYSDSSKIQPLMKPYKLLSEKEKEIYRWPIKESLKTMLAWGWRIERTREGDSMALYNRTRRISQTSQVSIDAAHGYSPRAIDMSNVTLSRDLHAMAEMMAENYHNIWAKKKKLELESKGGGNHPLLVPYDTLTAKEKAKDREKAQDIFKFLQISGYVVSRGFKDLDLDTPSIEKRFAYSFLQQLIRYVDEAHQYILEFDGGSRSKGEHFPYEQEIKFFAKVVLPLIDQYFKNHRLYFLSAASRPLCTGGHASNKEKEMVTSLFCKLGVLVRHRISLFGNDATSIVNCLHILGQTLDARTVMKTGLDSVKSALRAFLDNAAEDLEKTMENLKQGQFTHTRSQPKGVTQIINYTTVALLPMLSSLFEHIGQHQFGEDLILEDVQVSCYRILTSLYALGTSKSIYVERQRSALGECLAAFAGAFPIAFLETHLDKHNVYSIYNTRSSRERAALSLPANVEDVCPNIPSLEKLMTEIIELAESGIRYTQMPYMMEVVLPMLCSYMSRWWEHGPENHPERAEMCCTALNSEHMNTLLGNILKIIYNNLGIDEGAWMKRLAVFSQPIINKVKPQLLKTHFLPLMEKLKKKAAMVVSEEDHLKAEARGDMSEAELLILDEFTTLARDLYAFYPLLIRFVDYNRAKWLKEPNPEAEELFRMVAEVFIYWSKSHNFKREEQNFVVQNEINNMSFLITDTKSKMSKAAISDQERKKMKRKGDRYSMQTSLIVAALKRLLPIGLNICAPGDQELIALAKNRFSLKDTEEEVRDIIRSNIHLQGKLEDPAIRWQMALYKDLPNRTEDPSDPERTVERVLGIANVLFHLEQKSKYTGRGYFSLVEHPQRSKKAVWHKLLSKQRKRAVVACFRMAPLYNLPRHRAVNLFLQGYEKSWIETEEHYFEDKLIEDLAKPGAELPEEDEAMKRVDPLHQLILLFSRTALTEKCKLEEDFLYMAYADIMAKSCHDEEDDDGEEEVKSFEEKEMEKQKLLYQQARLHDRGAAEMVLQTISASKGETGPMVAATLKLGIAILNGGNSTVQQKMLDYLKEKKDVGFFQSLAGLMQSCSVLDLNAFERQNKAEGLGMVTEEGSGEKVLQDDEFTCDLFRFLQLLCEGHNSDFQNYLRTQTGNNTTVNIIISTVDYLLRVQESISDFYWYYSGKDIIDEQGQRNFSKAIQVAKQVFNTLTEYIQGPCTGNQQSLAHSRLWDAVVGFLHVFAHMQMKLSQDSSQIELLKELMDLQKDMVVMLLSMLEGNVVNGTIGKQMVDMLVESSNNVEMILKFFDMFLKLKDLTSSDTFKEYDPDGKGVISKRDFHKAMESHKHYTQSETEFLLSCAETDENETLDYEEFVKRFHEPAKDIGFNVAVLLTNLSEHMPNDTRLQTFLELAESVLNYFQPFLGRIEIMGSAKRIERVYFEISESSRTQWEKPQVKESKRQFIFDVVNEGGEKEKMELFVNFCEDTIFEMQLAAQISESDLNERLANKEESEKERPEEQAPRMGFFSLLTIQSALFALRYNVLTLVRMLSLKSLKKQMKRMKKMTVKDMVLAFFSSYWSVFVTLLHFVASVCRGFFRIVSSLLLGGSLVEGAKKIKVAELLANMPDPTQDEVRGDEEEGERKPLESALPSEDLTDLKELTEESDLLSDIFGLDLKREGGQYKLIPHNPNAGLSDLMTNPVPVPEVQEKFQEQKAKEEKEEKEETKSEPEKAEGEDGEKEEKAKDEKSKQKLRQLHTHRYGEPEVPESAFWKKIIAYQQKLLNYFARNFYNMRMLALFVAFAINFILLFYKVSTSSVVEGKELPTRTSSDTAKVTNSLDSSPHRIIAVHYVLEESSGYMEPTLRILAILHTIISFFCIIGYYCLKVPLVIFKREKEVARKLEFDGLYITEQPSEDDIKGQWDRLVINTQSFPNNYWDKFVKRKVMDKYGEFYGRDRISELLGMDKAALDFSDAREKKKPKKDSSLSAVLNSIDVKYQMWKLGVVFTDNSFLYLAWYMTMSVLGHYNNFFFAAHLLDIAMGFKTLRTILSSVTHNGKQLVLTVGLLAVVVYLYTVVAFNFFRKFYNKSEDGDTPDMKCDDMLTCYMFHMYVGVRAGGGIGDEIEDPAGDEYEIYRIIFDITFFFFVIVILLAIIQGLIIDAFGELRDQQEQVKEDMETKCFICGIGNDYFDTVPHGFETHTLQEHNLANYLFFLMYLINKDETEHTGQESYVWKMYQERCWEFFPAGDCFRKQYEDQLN

[4] = target: Ryanodine receptor 1 (Homo sapiens) (UniProt P21817); assay: Inhibition of RyR1 (unknown origin) expressed in HEK293 cells assessed as caffeine-induced increase in Ca2+ release at 100 uM by flex-station 3 fluorometer analysis
[5] = target: Ryanodine receptor 2 (Mus musculus) (UniProt E9Q401); assay: Inhibition of Full length wild type mouse RyR2 expressed in Flp-In-T-REx-293 cells assessed as increase in Ca2+ release in endoplasmic reticulum at 30 uM by flex-station 3 fluorometer analysis
Sequence of Ryanodine receptor 2 (Mus musculus) (E9Q401 whole entry): as above

[6] = tested on: HEK293; assay: Inhibition of RyR3 R2163C mutant (unknown origin) expressed in HEK293 cells assessed as caffeine-induced increase in Ca2+ release at 100 uM; settings: Homo sapiens
[7] = target: Ryanodine receptor 2 (Mus musculus) (UniProt E9Q401); assay: Inhibition of Full length wild type mouse RyR2 expressed in Flp-In-T-REx-293 cells assessed as caffeine-induced increase in Ca2+ release in endoplasmic reticulum at 0.0001 to 100 uM by flex-station 3 fluorometer analysis; settings: dose 0.0001-100 µM
[8] = target: Ryanodine receptor 2 (Mus musculus) (UniProt E9Q401); assay: Inhibition of Full length mouse RyR2 expressed in human Flp-In-T-REx-293 cells
[9] = tested on: HEK293; assay: Inhibition of RyR1 R2163C mutant (unknown origin) expressed in HEK293 cells; settings: Homo sapiens

| Compound | EC50 [3] [nM] | further results |
| --- | --- | --- |
| CC(C)NCC(O)c1ccc(O)c(O)c1 (stereo not drawn) |  | inhibition [1]: inactive; inhibition [2]: inactive |
| COc1cccc(-c2nnn(CC(=O)N(C)c3ccc(OC)c(F)c3)n2)c1 | 48 |  |
| COc1ccc(N(C)C(=O)Cn2nnc(-c3cccc(OC)c3)n2)cc1 | 26 |  |
| CN(C(=O)Cn1nnc(-c2cc(F)cc(F)c2)n1)c1ccc(F)cc1 | 13 | inhibition [4]: inactive; inhibition [5]: inactive; inhibition [6]: inactive; inhibition [1]: Active; inhibition [2]: Active; inhibition [7]: Active |
| COc1cc(-c2nnn(CC(=O)N(C)c3ccc(F)cc3)n2)ccc1F | 59 |  |
| O=C(Cn1nnc(-c2cccc(F)c2)n1)N1CCc2ccccc21 | > 30000 |  |
| CCCN(C(=O)Cn1nnc(-c2ccccc2)n1)c1ccccc1 | 29400 |  |
| CN(C(=O)Cn1nnc(-c2ccccc2F)n1)c1ccccc1 | 460 |  |
| CN(C(=O)Cn1nnc(-c2cccc(F)c2)n1)c1ccc(F)cc1 | 34 |  |
| COc1cccc(-c2nnn(CC(=O)Nc3ccc(F)cc3)n2)c1 | > 30000 |  |
| CN(C(=O)Cn1nnc(-c2cccc(F)c2)n1)c1ccccc1 | 96 |  |
| COc1ccccc1N(C)C(=O)Cn1nnc(-c2ccccc2)n1 | > 30000 |  |
| O=C(Cn1nnc(-c2ccccc2)n1)Nc1ccccc1 | > 30000 |  |
| COc1ccc(-c2nnn(CC(=O)N(C)c3ccc(F)cc3)n2)cc1OC | 1140 |  |
| COc1cccc(-c2nnn(CC(=O)N(C)c3ccc(OC)c(OC)c3)n2)c1 | > 30000 |  |
| COc1ccc(-c2nnn(CC(=O)N(C)c3ccccc3)n2)cc1 | 1230 |  |
| Nc1nc2ccc(OC(F)(F)F)cc2s1 [RILUZOLE] | 9900 |  |
| CN(C(=O)Cn1nnc(-c2ccccc2)n1)c1ccccc1 | 696 |  |
| COc1cccc(-c2nnn(CC(=O)N3CCc4ccccc43)n2)c1 | > 30000 |  |
| COC(=O)c1c(C)cc(O)cc1O [METHYL ORSELLINATE] | 1100 |  |

| Compound | EC50 [3] [nM] | further results |
| --- | --- | --- |
| O=C(Cn1nnc(-c2cccc(F)c2)n1)Nc1ccccc1 | > 30000 |  |
| CN(C(=O)Cn1nnc(-c2ccccc2)n1)c1ccc(F)cc1 | 50 |  |
| COc1ccc(NC(=O)Cn2nnc(-c3ccccc3)n2)cc1 | > 30000 |  |
| O=C(Cn1nnc(-c2cc(F)cc(F)c2)n1)Nc1ccc(F)cc1 | > 30000 |  |
| COc1ccccc1-c1nnn(CC(=O)N(C)c2ccccc2)n1 | 2920 |  |
| COc1ccc(-c2nnn(CC(=O)Nc3ccccc3)n2)cc1 | > 30000 |  |
| COc1cccc(N(C)C(=O)Cn2nnc(-c3ccccc3)n2)c1 | 25000 |  |
| CN(C(=O)Cn1nnc(-c2ccccc2)n1)c1cccc(F)c1 | 234 |  |
| CN(C(=O)Cn1nnc(-c2ccc(F)cc2)n1)c1ccccc1 | 220 |  |
| CN(C(=O)Cn1nnc(-c2cc(F)cc(F)c2)n1)c1ccccc1 | 22 |  |
| CN(C(=O)Cn1nnc(-c2ccccc2)n1)c1ccccc1F | 859 |  |
| CCN(C(=O)Cn1nnc(-c2ccccc2)n1)c1ccccc1 | 4080 | inhibition [8]: Active; inhibition [9]: inactive |
| COc1ccc(N(C)C(=O)Cn2nnc(-c3cccc(F)c3)n2)cc1 | 28 |  |
| COc1ccccc1-c1nnn(CC(=O)Nc2ccccc2)n1 | > 30000 |  |
| O=C(Cn1nnc(-c2cccc(F)c2)n1)Nc1ccc(F)cc1 | > 30000 |  |
| COc1cccc(-c2nnn(CC(=O)Nc3ccccc3)n2)c1 | > 30000 |  |
| COc1cccc(-c2nnn(CC(=O)N(C)c3ccc(F)cc3)n2)c1 | 23 |  |
| COc1cccc(-c2nnn(CC(=O)N(C)c3ccccc3)n2)c1 | 180 |  |
| COc1ccc(N(C)C(=O)Cn2nnc(-c3ccccc3)n2)cc1 | 136 |  |
